Measured values reported in US9102614B2, “Naphth-2-ylacetic acid derivatives to treat AIDS” (Gilead Sciences, Inc., priority 2010, dated 2015).
Read-outs that look alike come from different tables or passages of the source.

Test system: HIV-IIIb
Assay: Test A: Antiviral Assays in MT4 Cells
Format: cell-based
Method: Test A: Antiviral Assays in MT4 Cells
For the antiviral assay utilizing MT-4 cells, 0.4 μL of […] test concentration of 3-fold serially diluted compound in DMSO was added to 40 μL of cell growth medium (RPMI 1640, 10% FBS, 1% penicillin/Streptomycin, 1% L-Glutamine, 1% HEPES) in each well of 384-well assay plates (10 concentrations) in quadruplicate.
1 mL aliquots of 2×10e6 MT-4 cells are pre-infected for 1 and 3 hrs respectively, @37° C. with 25 μL (MT4) or of either cell growth medium (mock-infected) or a fresh 1:250 dilution of an HIV-IIIb concentrated ABI stock (0.004 m.o.i. for MT4 cells). Infected and uninfected cells are diluted in cell growth medium and 35 uL of 2000 (for MT4) cells is added to each well of the assay plates.
Assay plates were then incubated in a 37° C. incubator. After 5 days of incubation, 25 μl of 2× concentrated CellTiter-Glo™ Reagent (catalog #G7573, Promega Biosciences, Inc., Madison, Wis.) was added to each well of the assay plate. Cell lysis was carried out by incubating at room temperature for 2-3 min and then chemiluminescence was read using the Envision reader (PerkinElmer).

[1] = Human immunodeficiency virus 1, IIIB, MT4, 120 h, MT-4 cells infected with HIV-IIIb (0.004 m.o.i.), 5 days of incubation, CellTiter-Glo chemiluminescence readout, read-out: EC50
[2] = MT-4 cells infected with HIV-IIIb (0.004 m.o.i.), 5 days of incubation, CellTiter-Glo chemiluminescence readout, read-out: EC50

Row | SMILES | EC50 [1] | EC50 [2] | also measured
1 | Cc1cc2ccc(C#CC(C)(C)N)cc2c(-c2ccc3c(c2)CCCO3)c1C(OC(C)(C)C)C(=O)O (stereo not drawn) [Compound 87, 2-(7-(3-Amino-3-methylbut-1-ynyl)-1-(chroman-6-yl)-3-methylnaphthalen-2-yl)-2-tert-butoxyacetic acid] | 72 nM | – | –
2 | Cc1cc2ccccc2c(-c2cccc3cccnc23)c1[C@H](OC(C)(C)C)C(=O)O [Compound 4L, (S)-2-tert-butoxy-2-((S)-3-methyl-1-(quinolin-8-yl)naphthalen-2-yl)acetic acid] | 22000 nM | – | –
3 | Cc1cc2ccc(C#CC(C)(C)N(C)C)cc2c(-c2ccc(Cl)cc2)c1C(OC(C)(C)C)C(=O)O (stereo not drawn) [Compound 95, 2-tert-Butoxy-2-(1-(4-chlorophenyl)-7-(3-(dimethylamino)-3-methylbut-1-ynyl)-3-methylnaphthalen-2-yl)acetic acid] | 380 nM | – | –
4 | Cc1c(C(OC(C)(C)C)C(=O)O)c(-c2ccc(Cl)cc2)c2ccccc2c1-c1ccccc1 (stereo not drawn) [Compound 136, 2-tert-Butoxy-2-(1-(4-chlorophenyl)-3-methyl-4-phenylnaphthalen-2-yl)acetic acid] | 340 nM | – | –
5 | Cc1cc2ccccc2c(-c2ccc3c4c(ccnc24)CCO3)c1[C@H](OC(C)(C)C)C(=O)O [Compound 161] | – | 4700 nM | –
6 | Cc1cc2cc(-c3ncccn3)ccc2c(-c2ccc(Cl)cc2)c1[C@H](OC(C)(C)C)C(=O)O [Compound 59, (S)-2-tert-butoxy-2-(1-(4-chlorophenyl)-3-methyl-6-(pyrimidin-2-yl)naphthalen-2-yl)acetic acid] | 160 nM | – | –
7 | Cc1cc2cc(F)c(F)cc2c(-c2ccc3c4c(ccnc24)CCO3)c1[C@@H](OC(C)(C)C)C(=O)O (atropisomer, axis not shown) [Compound 173] | – | 3200 nM | –
8 | Cc1cc2c(-c3cncnc3)cc(F)cc2c(-c2ccc3c4c(ccnc24)CCO3)c1[C@H](OC(C)(C)C)C(=O)O [Compound 114, (S)-2-tert-butoxy-2-((R)-1-(2,3-dihydropyrano[4,3,2-de]quinolin-7-yl)-7-fluoro-3-methyl-5-(pyrimidin-5-yl)naphthalen-2-yl)acetic acid] | – | 1900 nM | –
9 | Cc1cc2cc(F)ccc2c(-c2ccc3c4c(ccnc24)CCO3)c1C(OC(C)(C)C)C(=O)O [Compound 43, 2-tert-butoxy-2-((R)-1-(2,3-dihydropyrano[4,3,2-de]quinolin-7-yl)-6-fluoro-3-methylnaphthalen-2-yl)acetic acid] | – | 22 nM | –
10 | Cc1cc2ccc(C#CC3(O)CCCCC3)cc2c(-c2ccc(Cl)cc2)c1C(OC(C)(C)C)C(=O)O (stereo not drawn) [Compound 83, 2-tert-Butoxy-2-(1-(4-chlorophenyl)-7-((1-hydroxycyclohexyl)ethynyl)-3-methylnaphthalen-2-yl)acetic acid] | 78 nM | – | –
11 | Cc1cc2ccc(C#CC(C)(C)N)cc2c(-c2ccc3c4c(ccnc24)CCO3)c1C(OC(C)(C)C)C(=O)O [Compound 86, (S)-2-((R)-7-(3-Amino-3-methylbut-1-ynyl)-1-(2,3-dihydropyrano[4,3,2-de]quinolin-7-yl)-3-methylnaphthalen-2-yl)-2-tert-butoxyacetic acid] | 980 nM | – | –
12 | Cc1cc2ccc(Cl)cc2c(-c2ccc3c4c(ccnc24)CCO3)c1[C@H](OC(C)(C)C)C(=O)O (atropisomer, axis not shown) [Compound 180] | 29000 nM | – | –
13 | Cc1cc2cc(C(C)C)c(F)cc2c(-c2ccc3c4c(ccnc24)CCO3)c1[C@H](OC(C)(C)C)C(=O)O [Compound 102, (S)-2-tert-Butoxy-2-((R)-1-(2,3-dihydropyrano[4,3,2-de]quinolin-7-yl)-7-fluoro-6-isopropyl-3-methylnaphthalen-2-yl)acetic acid] | – | 37 nM | –
14 | CC(C)(C)O[C@H](C(=O)O)c1c(CN2CCOCC2)cc2ccccc2c1-c1ccc(Cl)cc1 [Compound 27, (S)-2-tert-Butoxy-2-(1-(4-chlorophenyl)-3-(morpholinomethyl)naphthalen-2-yl)acetic acid] | 3500 nM | – | –
15 | Cc1cc2ccccc2c(C2=CCC(C)CC2)c1[C@H](OC(C)(C)C)C(=O)O (stereo partly drawn) [Compound 13, (2S)-2-tert-Butoxy-2-(3-methyl-1-(4-methylcyclohex-1-enyl)naphthalen-2-yl)acetic acid] | 10 nM | – | –
16 | Cc1cc2ccc(CCC(C)(C)O)cc2c(-c2ccc(Cl)cc2)c1C(OC(C)(C)C)C(=O)O (stereo not drawn) [Compound 89, 2-tert-Butoxy-2-(1-(4-chlorophenyl)-7-(3-hydroxy-3-methylbutyl)-3-methylnaphthalen-2-yl)acetic acid] | 280 nM | – | –
17 | CC(C)(C)O[C@H](C(=O)O)c1c(COc2cncnc2)cc2ccccc2c1-c1ccc(Cl)cc1 [Compound 26, (S)-2-tert-Butoxy-2-(1-(4-chlorophenyl)-3-((pyrimidin-5-yloxy)methyl)naphthalen-2-yl)acetic acid] | 840 nM | – | –

Row | SMILES | EC50 [1] | EC50 [2] | also measured
18 | Cc1cc2cc(C(N)=O)c(F)cc2c(-c2ccc3c4c(ccnc24)CCO3)c1[C@H](OC(C)(C)C)C(=O)O (atropisomer, axis not shown) [Compound 168] | 45000 nM | – | –
19 | Cc1cc2ccc(F)cc2c(-c2ccc3c4c(ccnc24)CCO3)c1[C@H](OC(C)(C)C)C(=O)O (racemic) [Compound 123, (±)-(2S)-2-tert-Butoxy-2-((R)-1-(2,3-dihydropyrano[4,3,2-de]quinolin-7-yl)-7-fluoro-3-methylnaphthalen-2-yl)acetic acid] | – | 24 nM | –
20 | Cc1cc2cc(F)c(F)cc2c(-c2ccc3c4c(ccnc24)CCO3)c1[C@H](OC(C)(C)C)C(=O)O [Compound 108, (S)-2-tert-Butoxy-2-((R)-1-(2,3-dihydropyrano[4,3,2-de]quinolin-7-yl)-6,7-difluoro-3-methylnaphthalen-2-yl)acetic acid] | – | – | EC50 (Human immunodeficiency virus 1, IIIB, MT4, 120 h): 28 nM
21 | Cc1cc2c(Cl)c(C)ccc2c(-c2ccc3c4c(ccnc24)CCO3)c1[C@H](OC(C)(C)C)C(=O)O [Compound 116, (S)-2-tert-Butoxy-2-((R)-5-chloro-1-(2,3-dihydropyrano[4,3,2-de]quinolin-7-yl)-3,6-dimethylnaphthalen-2-yl)acetic acid] | – | 16 nM | –
22 | Cc1c(C(OC(C)(C)C)C(=O)O)c(-c2ccc(Cl)cc2)c2ccccc2c1-c1cncnc1 (stereo not drawn) [Compound 139, 2-tert-Butoxy-2-(1-(4-chlorophenyl)-3-methyl-4-(pyrimidin-5-yl)naphthalen-2-yl)acetic acid] | 10 nM | – | –
23 | Cc1cc2cc(C(C)C)c(F)cc2c(-c2ccc3c4c(ccnc24)CCO3)c1[C@H](OC(C)(C)C)C(=O)O (atropisomer, axis not shown) [Compound 167] | 29000 nM | – | –
24 | CC(C)(C)O[C@H](C(=O)O)c1c(CF)cc2ccccc2c1-c1ccc2c3c(ccnc13)CCO2 [Compound 31, (S)-2-tert-Butoxy-2-((R)-1-(2,3-dihydropyrano[4,3,2-de]quinolin-7-yl)-3-(fluoromethyl)naphthalen-2-yl)acetic acid] | 110 nM | – | –
25 | COc1ccc2c(-c3ccc(Cl)cc3)c(C(OC(C)(C)C)C(=O)O)c(C)cc2c1 (stereo not drawn) [Compound 48, 2-tert-Butoxy-2-(1-(4-chlorophenyl)-6-methoxy-3-methylnaphthalen-2-yl)acetic acid] | 210 nM | – | –
26 | Cc1c([C@@H](OC(C)(C)C)C(=O)O)c(-c2ccc(Cl)cc2)c2ccccc2c1Br [Compound 150A, (R)-2-(4-Bromo-1-(4-chlorophenyl)-3-methylnaphthalen-2-yl)-2-tert-butoxyacetic acid] | 29200 nM | – | –
27 | Cc1cc2cc(C#N)c(F)cc2c(-c2ccc3c4c(ccnc24)CCO3)c1[C@H](OC(C)(C)C)C(=O)O (atropisomer, axis not shown) [Compound 169] | 18000 nM | – | –
28 | Cc1cc2c(F)c(Cl)ccc2c(-c2ccc3c4c(ccnc24)CCO3)c1[C@H](OC(C)(C)C)C(=O)O (atropisomer, axis not shown) [Compound 152] | – | 5800 nM | –
29 | Cc1cc2cc(C(N)=O)c(F)cc2c(-c2ccc3c4c(ccnc24)CCO3)c1[C@H](OC(C)(C)C)C(=O)O [Compound 106B, (S)-2-tert-Butoxy-2-((R)-6-carbamoyl-1-(2,3-dihydropyrano[4,3,2-de]quinolin-7-yl)-7-fluoro-3-methylnaphthalen-2-yl)acetic acid] | – | 91 nM | –
30 | Cc1cc2cc(F)c(F)cc2c(-c2ccc3c4c(ccnc24)CCO3)c1[C@@H](OC(C)(C)C)C(=O)O [Compound 109, (R)-2-tert-Butoxy-2-((R)-1-(2,3-dihydropyrano[4,3,2-de]quinolin-7-yl)-6,7-difluoro-3-methylnaphthalen-2-yl)acetic acid] | – | 29000 nM | –
31 | Cc1cc2ccc(C#CC(C)(C)N)cc2c(-c2ccc(Cl)cc2)c1C(OC(C)(C)C)C(=O)O (stereo not drawn) [Compound 85, 2-(7-(3-Amino-3-methylbut-1-ynyl)-1-(4-chlorophenyl)-3-methylnaphthalen-2-yl)-2-tert-butoxyacetic acid] | 18 nM | – | –
32 | CCc1cc2ccccc2c(-c2ccc(Cl)cc2)c1[C@H](OC(C)(C)C)C(=O)O [Compound 29B, (S)-2-tert-butoxy-2-(1-(4-chlorophenyl)-3-ethylnaphthalen-2-yl)acetic acid] | 500 nM | – | –
33 | Cc1cc2ccccc2c(C2=CC(C)(C)CCC2=O)c1[C@H](OC(C)(C)C)C(=O)O [Compound 157] | – | 10000 nM | –
